According to patent US10375956B2, “Herbicidally active 2-(substituted-phenyl)-cyclopentane-1,3-dione compounds and derivatives thereof” (Syngenta Limited, priority 2013, dated 2019):
Like-named read-outs stand apart in the source and are kept apart here.

Assays:
Assay type in all cases: in vivo
[1] = system: Alopecurus myosuroides (ALOMY); experiment: Test 1 glasshouse assay, post-emergence herbicidal activity; conditions: 312 h, after 13 days, read-out: Percentage phytotoxicity ALOMY
In short: (§1)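 Plants sprayed 8 days after sowing with active ingredient in acetone/water (50:50) containing 0.5% Tween 20, grown in glasshouse at 24/16°C day/night, 14 h light, 65% humidity. Phytotoxicity scored visually after 13 days as percentage damage (100% = total damage; 0% = none).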

[2] = system: Echinochloa crus-galli (ECHCG); experiment: as above; conditions: 312 h, after 13 days, read-out: Percentage phytotoxicity ECHCG
In short: as §1

[3] = system: Beta vulgaris (BEAVA, sugarbeet); experiment: Test 2 glasshouse assay (IF50 formulation, X-77), post-emergence herbicidal activity; conditions: 360 h, 15 DAA, visual score, read-out: Post-emergence herbicidal activity (percentage phytotoxicity) BEAVA; for plant injury at 250 g/ha: application rate 250 g/ha
In short: (§2)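 Plants grown ~12 days (range 10-13) in glasshouse (cool species 20/16° C., warm 24/18° C. day/night; 16 h light; 65% humidity), then sprayed post-emergence with IF50 formulation in aqueous 0.2% v/v X-77. Visual percentage phytotoxicity scored 15 days after application (100% = total damage, 0% = none).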

[4] = system: Glycine max (GLXMA, soybean); experiment: as above; conditions: 360 h, 15 DAA, visual score, read-out: Post-emergence herbicidal activity (percentage phytotoxicity) GLXMA; for plant injury at 250 g/ha: application rate 250 g/ha
In short: as §2

[5] = system: Triticum aestivum (TRZAW, winter wheat); experiment: as above; conditions: 360 h, 15 DAA, visual score, read-out: Post-emergence herbicidal activity (percentage phytotoxicity) TRZAW; for plant injury at 250 g/ha: application rate 250 g/ha
In short: as §2

[6] = system: Brassica napus (BRSNN, rape); experiment: as above; conditions: 360 h, 15 DAA, visual score, read-out: Post-emergence herbicidal activity (percentage phytotoxicity) BRSNN; for plant injury at 250 g/ha: application rate 250 g/ha
In short: as §2

[7] = system: Alopecurus myosuroides (ALOMY); experiment: Test 1 glasshouse assay, pre-emergence herbicidal activity; conditions: 312 h, visual evaluation after 13 days, read-out: Percentage phytotoxicity ALOMY
In short: (§3)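 Pre-emergence: test species sown in soil and sprayed one day after sowing with active ingredient in acetone/water (50:50) with 0.5% Tween 20. Grown at 24/16 °C day/night, 14 h light, 65% humidity; visual phytotoxicity scored after 13 days (0% no damage, 100% total damage).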

[8] = system: Abutilon theophrasti (ABUTH); experiment: as above; conditions: 312 h, visual evaluation after 13 days, read-out: Percentage phytotoxicity ABUTH
In short: as §3

[9] = system: Amaranthus retroflexus (AMARE); experiment: as above; conditions: 312 h, visual evaluation after 13 days, read-out: Percentage phytotoxicity AMARE
In short: as §3

Setaria faberi (SETFA) = experiment: as above; conditions: 312 h, visual evaluation after 13 days, read-out: Percentage phytotoxicity SETFA
In short: as §3

[10] = system: Zea mays (ZEAMX, corn/maize); experiment: as above; conditions: 312 h, visual evaluation after 13 days, read-out: Percentage phytotoxicity ZEAMX
In short: as §3

[11] = system: Echinochloa crus-galli (ECHCG); experiment: as above; conditions: 312 h, visual evaluation after 13 days, read-out: Percentage phytotoxicity ECHCG
In short: as §3

[12] = post-emergence (Example 1B Table 1)
[13] = post-emergence (Example 1B Table 2)
[14] = post-emergence (Example 1B Table 1), 30 g/ha

C#CCC1CC(=O)C(c2c(C)cc(-c3ccc(Cl)cn3)cc2C)C1=O (stereo not drawn) [Compound A2]
pest or weed control at 62.5 g/ha [1, 12]: 90%
pest or weed control at 250 g/ha [1, 12]: 90%
pest or weed control at 62.5 g/ha [1, 13]: 70%
pest or weed control at 250 g/ha [1, 13]: 100%
pest or weed control at 62.5 g/ha [2, 12]: 100%
pest or weed control at 250 g/ha [2, 12]: 100%
pest or weed control at 62.5 g/ha [2, 13]: 90%
pest or weed control at 250 g/ha [2, 13]: 100%
plant injury at 30 g/ha ([3]; application rate 30 g/ha): 40%
plant injury at 250 g/ha [3]: 50%
plant injury at 30 g/ha ([4]; application rate 30 g/ha): 10%
plant injury at 250 g/ha [4]: 20%
plant injury at 30 g/ha ([5]; application rate 30 g/ha): 70%
plant injury at 250 g/ha [5]: 90%
plant injury at 30 g/ha ([6]; application rate 30 g/ha): 50%
plant injury at 250 g/ha [6]: 80%
pest or weed control at 250 g/ha [7]: 90%
pest or weed control at 250 g/ha [8]: 50%
pest or weed control at 250 g/ha [9]: 90%
pest or weed control at 250 g/ha (Setaria faberi (SETFA)): 100%
pest or weed control at 250 g/ha [10]: 100%
pest or weed control at 250 g/ha [11]: 100%

C#CCC1CC(=O)C(c2cc(-c3ncc(Cl)cn3)ccc2C)C1=O (stereo not drawn) [Compound A19]
pest or weed control at 30 g/ha [1, 14]: 10%
pest or weed control at 250 g/ha [1, 12]: 60%
pest or weed control at 30 g/ha [2, 14]: 70%
pest or weed control at 250 g/ha [2, 12]: 90%
plant injury at 250 g/ha [3]: 0%
plant injury at 250 g/ha [4]: 20%
plant injury at 250 g/ha [5]: 30%
plant injury at 250 g/ha [6]: 10%
pest or weed control at 250 g/ha [7]: 60%
pest or weed control at 250 g/ha [8]: 40%
pest or weed control at 250 g/ha [9]: 40%
pest or weed control at 250 g/ha (Setaria faberi (SETFA)): 60%
pest or weed control at 250 g/ha [10]: 0%
pest or weed control at 250 g/ha [11]: 50%
